Test results as given in patent publication US20030143729A1 (Synaptic Pharmaceutical Corporation, priority 1992, published 2003).
“And” between values parts separate entries of the source, which are not always exact repeats. Equal values may be shown once. Read-outs that look alike come from different tables or passages of the source.

Experiments:
GAT-1 = molecular target: T1, GAT-1 (Rattus norvegicus, UniProt P23978); assay: [3H]GABA uptake by COS-7 cells transfected with GAT-1 (rB46a); format: cell-based
T1 construct: expressed in transfected cells; host or cells: COS-7 cells, transient (DEAE-dextran)

rat brain aggregates = assay: [3H]GABA uptake by brain aggregates; format: cell-based
Description: Briefly, adult rat brains were removed from the skull and the cerebral cortex was dissected and placed in ice-cold HBS. […] The preparation was washed once by centrifugation, then resuspended in HBS.
The filters were washed with ice-cold HBS, punched into vials, and radioactivity determined by scintillation counting. Protein was determined in an aliquot of the aggregate preparation using the BIO-RAD protein assay kit.

[1] = molecular target: T2, taurine transporter (rB16a) (Rattus norvegicus, UniProt P31643); assay: [3H]taurine uptake by COS-7 cells transfected with rB16a; details: for inhibition at 10 µM: COS-7, read-out: % Inhibition of [3H]taurine uptake, rB16a, inhibitor 10 μM; for inhibition at 10 µM / inhibition at 100 µM / inhibition at 1000 µM / % Inhibition of [3H]taurine uptake, rB16a: 50 nM [3H]taurine, 10 minutes, 37° C.; for inhibition at 100 µM: COS-7, read-out: % Inhibition of [3H]taurine uptake, rB16a, inhibitor 100 μM; for inhibition at 1000 µM: COS-7, read-out: % Inhibition of [3H]taurine uptake, rB16a, inhibitor 1 mM
T2 sequence (P31643 1-621): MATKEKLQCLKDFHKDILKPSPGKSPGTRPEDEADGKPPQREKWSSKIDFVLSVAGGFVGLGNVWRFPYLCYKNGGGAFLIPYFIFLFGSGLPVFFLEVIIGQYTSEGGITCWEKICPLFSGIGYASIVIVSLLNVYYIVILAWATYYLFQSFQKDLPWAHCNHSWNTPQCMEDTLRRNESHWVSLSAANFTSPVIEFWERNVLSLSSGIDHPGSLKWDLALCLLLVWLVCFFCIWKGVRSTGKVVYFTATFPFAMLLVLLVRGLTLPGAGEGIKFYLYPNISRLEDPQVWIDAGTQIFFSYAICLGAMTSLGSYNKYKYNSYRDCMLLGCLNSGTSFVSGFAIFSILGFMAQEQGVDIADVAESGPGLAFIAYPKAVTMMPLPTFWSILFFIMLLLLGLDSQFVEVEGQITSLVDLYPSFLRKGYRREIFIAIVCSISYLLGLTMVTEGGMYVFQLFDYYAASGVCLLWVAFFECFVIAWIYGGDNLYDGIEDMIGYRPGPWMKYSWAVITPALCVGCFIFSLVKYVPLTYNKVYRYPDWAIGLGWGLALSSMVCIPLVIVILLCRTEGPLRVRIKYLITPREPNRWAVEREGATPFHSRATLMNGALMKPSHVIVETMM
Description: Transient transfections of COS cells with the plasmid pEVJB-rB16a were carried out using DEAE-dextran with DMSO according to the method of Lopata et al. (58) with minor modifications. COS cells were grown (37° C., 5%CO2) in high glucose Dulbecco's modified Eagle medium supplemented with 10% bovine calf serum, 100 U/ml penicillin G, and 100 μg/ml streptomycin sulfate. Cells were routinely used two days after transfection for transport studies.
Plates were incubated at 37° C. for 10 minutes unless indicated otherwise, then washed rapidly 3× with ice cold HBS. Cells were solubilized with 0.05% sodium deoxycholate/0.1N NaOH), an aliquot was neutralized with 1N HCl, and radioactivity was determined by scintillation counting. Protein was quantified in an aliquot of the solubilized cells using a BIO-RAD protein assay kit, according to the manufacturer's directions.

rat GAT-2 = molecular target: T3, rat GAT-2 (Rattus norvegicus, UniProt P31646)
T3 sequence (P31646 1-602): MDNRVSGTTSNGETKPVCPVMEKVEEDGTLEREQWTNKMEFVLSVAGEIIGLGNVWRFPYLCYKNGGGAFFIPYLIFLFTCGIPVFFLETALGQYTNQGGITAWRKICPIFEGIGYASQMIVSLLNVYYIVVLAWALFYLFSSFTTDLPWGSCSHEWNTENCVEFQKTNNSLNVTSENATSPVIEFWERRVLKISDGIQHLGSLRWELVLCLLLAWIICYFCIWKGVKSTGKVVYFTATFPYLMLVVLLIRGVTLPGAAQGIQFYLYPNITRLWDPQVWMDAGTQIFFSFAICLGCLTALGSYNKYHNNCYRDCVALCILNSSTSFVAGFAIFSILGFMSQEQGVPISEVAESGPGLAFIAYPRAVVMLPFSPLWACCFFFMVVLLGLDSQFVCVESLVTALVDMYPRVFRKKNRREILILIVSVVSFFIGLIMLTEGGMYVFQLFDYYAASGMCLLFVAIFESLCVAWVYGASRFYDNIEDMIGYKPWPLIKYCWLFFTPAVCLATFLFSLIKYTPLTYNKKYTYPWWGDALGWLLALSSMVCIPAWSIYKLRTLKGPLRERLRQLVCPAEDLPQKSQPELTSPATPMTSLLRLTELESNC
Description: (§1) Cells were grown under standard conditions (37° C., 5% CO2) in Dulbecco's modified Eagles's medium (GIBCO, Grand Island, N.Y.).
(§2) Cells grown in 24-well plates were washed 3× with HEPES-buffered saline (HBS, in mM: NaCl, 150; HEPES, 20; CaCl2, 1; glucose, 10; KCl, 5; MgCl2, 1; pH 7.4) and allowed to equilibrate on a 37° C. slide warmer. After 10 minutes the medium was removed and unlabeled drugs in HBS were added (450 μl/well). […] Plates were incubated at 37° C. for 10 minutes, then washed rapidly 3× with ice-cold HBS, using a 24-position plate washer (Brandel, Gaithersburg, Mass.; model PW-12). Cells were solubilized with 0.05% sodium deoxycholate/0.1N NaOH (0.25 ml/well), an aliquot neutralized with 1N HCl, and radioactivity was determined by scintillation counting. Protein was quantified in an aliquot of the solubilized cells using a BIO-RAD protein assay kit, according to the manufacturer's directions.
(§3) Lipophilic inhibitors were dissolved in DMSO.
(§4) Data Analysis: Competition curves were conducted in duplicate, using 10 concentrations of unlabeled drug.

human GAT-3 = molecular target: T4, human GAT-3 (Homo sapiens, UniProt P48066); details: 50 nM [3H]GABA
T4 sequence (P48066 1-632): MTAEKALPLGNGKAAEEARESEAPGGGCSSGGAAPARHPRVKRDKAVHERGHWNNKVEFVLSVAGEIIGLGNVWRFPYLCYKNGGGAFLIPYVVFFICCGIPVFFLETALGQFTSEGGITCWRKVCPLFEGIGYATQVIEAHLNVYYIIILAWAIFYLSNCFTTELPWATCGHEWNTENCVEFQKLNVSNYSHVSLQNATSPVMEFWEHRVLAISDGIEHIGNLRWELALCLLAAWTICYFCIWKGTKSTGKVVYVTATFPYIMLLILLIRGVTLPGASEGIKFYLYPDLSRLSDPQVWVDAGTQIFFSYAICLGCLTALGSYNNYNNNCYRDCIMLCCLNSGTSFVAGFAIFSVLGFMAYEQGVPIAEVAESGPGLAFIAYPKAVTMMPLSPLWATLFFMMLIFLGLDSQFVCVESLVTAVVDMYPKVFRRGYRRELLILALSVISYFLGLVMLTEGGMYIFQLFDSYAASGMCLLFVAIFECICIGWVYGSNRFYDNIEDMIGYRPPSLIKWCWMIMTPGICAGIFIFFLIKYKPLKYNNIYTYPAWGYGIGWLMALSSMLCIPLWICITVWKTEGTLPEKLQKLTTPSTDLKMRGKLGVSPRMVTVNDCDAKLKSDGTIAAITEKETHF
Description: as §1, §2, §3, §4

[2] = test system: endogenous taurine transporter in COS cells; assay: [3H]taurine uptake by non-transfected COS-7 cells (control); format: cell-based; details: 50 nM [3H]taurine, 10 minutes, 37° C.
rat GAT-1 = rat GAT-1 (Rattus norvegicus, UniProt P23978); details: for IC50: read-out: IC50 for inhibition of [3H]GABA uptake, rGAT-1 (Table 8)
Description: as §2, §3, §4
COS cells grown in 75 cm^2 or 150 cm^2 flasks in DMEM with 10% bovine calf serum, 100 U/ml penicillin G, and 100 μg/ml streptomycin sulfate (37° C., 5% CO2) were transfected using DEAE-dextran. On the day following transfection the cells were split into 24-well assay plates coated with poly-D-lysine (10 μg/ml), and transport was measured 24 hours later.
After 10 minutes the medium was removed and unlabeled drugs in HBS were added (450 μl/well). […] Plates were incubated at 37° C. for 10 minutes, then washed rapidly 3× with ice-cold HBS, using a 24-position plate washer (Brandel, Gaithersburg, Mass.; model PW-12). Cells were solubilized with 0.05% sodium deoxycholate/0.1N NaOH (0.25 ml/well), an aliquot neutralized with 1N HCl, and radioactivity was determined by scintillation counting. Protein was quantified in an aliquot of the solubilized cells using a BIO-RAD protein assay kit, according to the manufacturer's directions.

[3] = COS-7, read-out: % Inhibition of [3H]GABA uptake, GAT-1
[4] = Rattus norvegicus, read-out: IC50 for inhibition of [3H]GABA uptake, rat brain aggregates, control
[5] = IC50 for inhibition of [3H]GABA uptake, human GAT-3, stable cell line
[6] = read-out: IC50 for inhibition of [3H]GABA uptake, rat brain aggregates, control, absence of NNC-711
[7] = read-out: IC50 for inhibition of [3H]GABA uptake, rat brain aggregates, with NNC-711, in the presence of 10 μM NNC-711

Molecule | inhibition at 100 µM (GAT-1; [3]) | IC50 (rat brain aggregates; [4]) | inhibition at 10 µM [1] | inhibition at 100 µM [1] | inhibition at 1000 µM [1] | % Inhibition of [3H]taurine uptake, rB16a ([1]; inhibitor 1 mM) | IC50 (rat brain aggregates; [7]) | % Inhibition of [3H]taurine uptake, control ([2]; inhibitor 10 μM) | % Inhibition of [3H]taurine uptake, control ([2]; inhibitor 100 μM) | % Inhibition of [3H]taurine uptake, control ([2]; inhibitor 1 mM) | % Inhibition of [3H]taurine uptake, rB16a ([1]; inhibitor 10 μM) | % Inhibition of [3H]taurine uptake, rB16a ([1]; inhibitor 100 μM) | further results
N[C@@H]1CCC[C@H](C(=O)O)C1 (relative stereo) [ACHC, cis-3-aminocyclohexanecarboxylic acid] | 49 ± 10% | 31 µM | – | – | – | – | – | – | – | – | – | – | –
NCCCC(=O)O [GABA, gamma-aminobutyric acid] | – | – | 9 ± 6% | ~10% | ~40% | 44 ± 6 (8) % | – | – | – | – | – | – | affinity of the taurine transporter for GABA ([1]; from Table 15): ~1 mM; IC50 (rat GAT-2): ~5 µM; IC50 (human GAT-3; [5]): ~5 µM and ~7 µM
N=C(N)NCCS(=O)(=O)O [GES, guanidinoethanesulfonic acid] | – | – | – | – | – | 92% | 410 ± 100 µM | 6 ± 3 (4) % | 47 ± 3 (5) % | 89 ± 1 (5) % | 11% | 45% | IC50 (rat brain aggregates; [6]): 1340 µM; IC50 (rat GAT-1; full competition curves, 50 nM [3H]GABA): 4840 µM
NCC[C@H](N)C(=O)O [L-DABA, L-(2,4)diaminobutyric acid] | 49 ± 8% | 22 ± 3 µM | – | – | – | – | – | – | – | – | – | – | –
O=C(O)C1=CCCN(CCON=C(c2ccccc2)c2ccccc2)C1 [NNC-711] | – | – | – | – | – | – | 323 ± 70 µM | – | – | – | – | – | [3H]GABA uptake that persists, rat brain aggregates (rat brain aggregates; NNC-711 at 10 μM): 15±2%; IC50 (rat brain aggregates; read-out: IC50 for GABA uptake, rat brain aggregates): 0.09 µM; selectivity for GAT-1 (rat GAT-1): 1,000 fold; IC50 (rat GAT-1): 0.38 µM; IC50 (rat GAT-2; read-out: IC50 for inhibition of [3H]GABA uptake, rat GAT-2, stable cell line, 50 nM [3H]GABA): 171 ± 53 µM; IC50 (human GAT-3; read-out: IC50 for inhibition of [3H]GABA uptake, human GAT-3, stable cell line): 1700 ± 252 µM
O=C(O)C1=CCCNC1 [guvacine] | – | 10 ± 2 µM | – | – | – | – | – | – | – | – | – | – | inhibition at 10 µM (GAT-1; [3]): 41 ± 3%
NCCS(=O)O [hypotaurine] | – | 692 ± 100 µM | 30 to 40% | ~90% | ~100% | – | – | 41 ± 3 (7) % | 91 ± 1 (4) % | 99 ± 1 (4) % | 26 ± 7 (7) % | 84 ± 3 (4) % | –
NCCS(=O)(=O)O [taurine, 2-aminoethanesulfonic acid] | – | 67000 µM | 30 to 40% | ~90% | ~100% | 100° % | – | 38 ± 5 (7) % | 89 ± 2 (4) % | 100° % | 29 ± 8 (5) % | 83 ± 2 (5) % | VMAX of taurine transport, COS/rB16a ([1]; various concentrations of [3H]taurine, 30 seconds): 0.96±0.27 nmoles/mg protein
NCCC(=O)O [β-alanine] | 11 ± 1% | – | 15% | 51% | 96% | – | – | 9 ± 2 (6) % | 63 ± 3 (6) % | 97 ± 1 (4) % | – | – | IC50 (rat brain aggregates; Rattus norvegicus, read-out: IC50 for GABA transport, brain aggregates): 3000 µM; IC50 (rat brain aggregates; Rattus norvegicus, read-out: IC50 for inhibition of [3H]GABA uptake, rat brain aggregates, control, absence of NNC-711): 2930 µM; IC50 (rat brain aggregates; Rattus norvegicus, read-out: IC50 for inhibition of [3H]GABA uptake, rat brain aggregates, with NNC-711, in the presence of 10 μM NNC-711): 33 µM; IC50 (rat GAT-2): 19 ± 7 µM; IC50 (human GAT-3; [5]): ~58 µM and 58 µM
hydroxynipecotic acid [OH-nipecotic] | – | – | – | – | – | – | 69 ± 10 µM | – | – | – | – | – | % Inhibition of [3H]GABA uptake, GAT-1 (GAT-1; inhibitor 10 μM, 50 nM [3H]GABA, 10 minutes, 37° C.): 34 ± 5 (3) %; IC50 (rat brain aggregates; [6]): 10 ± 1 µM; IC50 (rat GAT-1): 44 ± 8 µM
